# Measured values reported in patent publication US10266520B2, “Bisamidinium-based inhibitors for the treatment of myotonic dystrophy” (The Board of Trustees of the University of Illinois, priority 2014, dated 2019).
# Key:
# [1] = system: Drosophila flies (gmr-GAL4>UAS-i(CTG)480; CTG60 control); experiment: Rough eye phenotype in DM1 Drosophila model; format: in vivo; details: for eye structure of control flies: 400 μM, CTG60 Drosophila flies
# Description: (§1) FIG. 4A-C. Efficacy of 1a and 2a in DM1 Drosophilia fly mode. (a) Improvement in adult rough eye phenotype. Each experiment was conducted in triplicate. (b) Effect of ligands on the control Drosophilia larvae (24B−GAL4>UAS−(CTG)60). (c) Dose-dependent effect of ligands on the DM1 larvae (24B−GAL4>UAS−i(CTG)480). Each experiment was conducted in triplicate, 10 individual larvae for each trial. Error bars represent standard deviation, two tail t-test *P<0.05, **P<0.01, ***P<0.001.
# (§2) Drosophila lines were cultured in standard cornmeal medium supplemented with dry yeasts. Fly lines bearing UAS-(CTG)60 and UAS-(CTG)480 were kind gifts of Prof. Rubén Artero Allepuz (Universitate de València, Estudi General, Spain). The gmr-GAL4 and […] lines were used to drive UAS transgene expression in eye and muscles respectively. Ligands 1a and 2a were dissolved in ddH2O and mixed with fly food. Genetic crosses were set up in drug-containing fly food at 21.5° C. for external eye assay, and at 25° C. for larval crawling assay.
# GFP-MBNL-rCUG^exp foci = experiment: Nuclear foci disruption, FISH/confocal with GFP-MBNL1 in DM1 model HeLa cells; format: cell-based
# Description: (§3) FIG. 2A-C. (a) Representative confocal microscope images showing the GFP-MBNL-rCUG^exp foci disruption by compounds 1a and 2a. (b) Percent of foci area per cell after treatment of ligands for 48 h. The sequestration and dispersion of endogenous MBNL under the treatment of ligand are quantitatively measured. Error bars represent standard errors of mean from at least four independent experiments, two-tail t-test *P<0.005. Note: This was a head-to-head comparison between compounds 1a and 2a. […] The difference is attributed to variability in cells and conditions. (c) Cytotoxicity profile of compound 2a.
# To evaluate the ability of dimer 2a to disrupt the […] in DM1 model cells, a standard fluorescence in situ hybridization experiment using exogenous MBNL was performed (FIG. 2a) (see Jahromi et al., ACS Chem. Biol. 2013, 8, 1037-1043). Here, GFP-MBNL1 was employed because of its intense signal and ability to easily monitor the location of the MBNL1 in live cells. Thus, normal HeLa cells were transfected with a plasmid containing GFP-MBNL1. To generate DM1 model cells, these HeLa cells were also transfected with a DMPK plasmid containing (CTG)960. […] The presence of MBNL1 was indicated as a green color from GFP signal for GFP-MBNL1 (Column 2), whereas (CUG)960 was detected by a complementary sequence (CAG)10 conjugated with a Cy3 dye and represented by a red color (Column 3). […]
# [2] = system: Drosophila larvae (24B-GAL4>UAS-i(CTG)480; (CTG)60 control); experiment: Larval crawling assay; format: in vivo; details: for mobility of normal larvae: 400 μM in fly food, control (CTG)60 larvae
# Description: as §1
# An individual larva generated from transgenic flies was placed on a Petri dish over graph paper, and the number of grid lines crossed by the larva in 1 min was recorded.
# as §2
# Larval crawling assay was performed as previously described (Lanson et al., Hum. Mol. Genet. 2011, 20, 2510-2523). Ten wandering third instar larvae were washed in ddH2O and placed on a 2% agarose gel in a 15-cm Petri dish with gridlines spaced at 0.5 cm. The larvae were allowed to acclimate for a period of 1 min, and the total number of gridlines that the posterior end of the larvae passes in 1 min was determine. Each set of experiment was repeated independently for three times using larvae collected from separate genetic crosses.
# [3] = system: MBNL1-rCUG^exp nuclear foci; experiment: Nuclear foci quantification with endogenous MBNL1 (immunofluorescence) in DM1 model cells; format: cell-based; details: 48 h
# Description: as §3
# In addition, a parallel experiment using endogenous MBNL1 in place of GFP-MBNL1 was conducted to quantify foci reduction in a model that more closely resembles DM1 patient cells. The endogenous MBNL1 was detected by an immunofluorescence technique (Alexa Fluor® 488 dye-labeled antibody) (Wong et al., J. Am. Chem. Soc. 2014, 136, 6355-6361). […] Incubation of 2a at 10 μM decreased the foci area to ca. 36%, but a similar level was also observed for the 100 μM treatment. It is encouraging that dimeric ligand 2a is as active at 1 μM as monomeric ligand 1a is at 100 μM. However, the lack of an obvious dose dependence and failure to fully dissolved nuclear foci at 100 μM may indicate a cellular penetration issue for 2a. Further study is underway.
# ITC, EMSA, confocal microscopy, IR splicing, and the reversal of rough-eye phenotype assays were conducted as previously described (Wong et al., J. Am. Chem. Soc. 2014, 136, 6355-6361). The cytotoxicity of 2a was accessed using a published protocol (Vichai et al., Sulforhodamine B colorimetric assay for cytotoxicity screening, Nat. Protoc. 2006, 1, 1112-1116).
Structure (SMILES),"rough eye phenotype ([1]; 50 μM in fly food, gmr-GAL4>UAS-i(CTG)480 flies)",eye structure of control flies [1],"foci dispersion (GFP-MBNL1) (GFP-MBNL-rCUG^exp foci; 1, 10, and 100 μM)","improvement in the DM1 larva's mobility ([2]; 20 μM, DM1 larvae) [%]","crawling defect rescued ([2]; 100 μM, DM1 larvae)",mobility of normal larvae [2],nuclear foci remained after treatment ([3]; 1 μM),foci area after treatment ([3]; 10 μM),foci dispersion (GFP-MBNL1) (GFP-MBNL-rCUG^exp foci; 100 μM),"crawling defect rescued ([2]; 200 μM, DM1 larvae) [%]","crawling defect rescued ([2]; 400 μM, DM1 larvae) [%]",nuclear foci remaining / foci area ([3]; 100 μM)
N=C(NCCCCNc1nc(N)nc(N)n1)c1ccc(C(=N)NCCCCNc2nc(N)nc(NCCCn3cc(CNc4nc(N)nc(NCCCCNC(=N)c5ccc(C(=N)NCCCCNc6nc(N)nc(N)n6)cc5)n4)nn3)n2)cc1 [Compound 2a],partial reversal of rough eye phenotypes,did not change the fly's eye structure,foci dispersion was observed,37,nearly full recovered,the mobility is not affected,approximately 72%,ca. 36%,,,,
N=C(NCCCCNc1nc(N)nc(N)n1)c1ccc(C(=N)NCCCCNc2nc(N)nc(N)n2)cc1 [Compound 1a],,did not change the fly's eye structure,,,ca. 14%,the mobility is not affected,,,foci dispersion was observed,~54,~84,ca. 90%
